# Reference: patent publication US20110039825A1, “LIGANDS OF ALPHA-ADRENOCEPTORS, DOPAMINE, HISTAMINE, IMIDAZOLINE AND SEROTONIN RECEPTORS AND THEIR USE” (Alla Chem, LLC, priority 2007, published 2011)
# What was measured:
# human D4.2 receptor = molecular target: T1, human D4.2 receptor (Homo sapiens, UniProt P21917, DEL265-296); test: radioligand binding to dopamine receptor D4.2 ([3H] Spiperone); conditions: 10 μM ligand
# T1 sequence (P21917 with tags, fused parts or gaps DEL265-296): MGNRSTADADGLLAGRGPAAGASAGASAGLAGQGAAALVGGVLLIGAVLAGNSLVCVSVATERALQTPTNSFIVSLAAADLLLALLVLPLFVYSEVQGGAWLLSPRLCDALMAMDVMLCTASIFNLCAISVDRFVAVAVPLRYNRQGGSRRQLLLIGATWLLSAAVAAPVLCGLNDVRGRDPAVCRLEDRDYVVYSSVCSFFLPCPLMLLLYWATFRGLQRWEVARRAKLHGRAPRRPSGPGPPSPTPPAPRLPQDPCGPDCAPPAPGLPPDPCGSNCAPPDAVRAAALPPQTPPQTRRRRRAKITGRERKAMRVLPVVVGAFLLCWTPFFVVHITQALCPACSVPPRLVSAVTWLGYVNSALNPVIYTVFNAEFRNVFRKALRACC
# Protocol: Screening of the disclosed compounds for potential ability to interact with dopamine receptor D4.2 is carried out by method of radioligand binding. […] From the cells transfected in this way membrane species are prepared by homogenization of these cells in glass homogenizer with the subsequent separation of plasmatic membranes from cell nuclei, mitochondrias and cell wreckages by differential centrifugation. […] After incubation samples are filtered in vacuo on glass-microfiber filters G/F (Millipor, USA), filters are washed three times with cold solution of medium and radioactivity is measured by scintillation counter MicroBeta 340 (Perkin Elmer, USA). Nonspecific binding which makes up 10% of the overall binding is determined by incubation of membrane species with radioligand in the presence of 10 μM of Haloperidol.
# Spiperone is used as positive control. Tested compounds' binding to the receptor is determined by their ability to displace radioligand and expressed in percent of displacement (% I). Values of % I are calculated according to the following equation:
# wherein: TA—is overall radioactivity in the presence of radioligand only, CA—is radioactivity in the presence of radioligand and tested compound and NA—is radioactivity in the presence of radioligand and Haloperidol (10 μM).
# human 5-HT7 receptor = molecular target: T2, human 5-HT7 receptor (Homo sapiens, UniProt P34969); test: radioligand binding to serotonin receptor 5-HT7 ([3H] Lysergic acid diethylamide)
# T2 construct: expressed in transfected cells; host or cells: CHO
# T2 sequence (P34969 whole entry): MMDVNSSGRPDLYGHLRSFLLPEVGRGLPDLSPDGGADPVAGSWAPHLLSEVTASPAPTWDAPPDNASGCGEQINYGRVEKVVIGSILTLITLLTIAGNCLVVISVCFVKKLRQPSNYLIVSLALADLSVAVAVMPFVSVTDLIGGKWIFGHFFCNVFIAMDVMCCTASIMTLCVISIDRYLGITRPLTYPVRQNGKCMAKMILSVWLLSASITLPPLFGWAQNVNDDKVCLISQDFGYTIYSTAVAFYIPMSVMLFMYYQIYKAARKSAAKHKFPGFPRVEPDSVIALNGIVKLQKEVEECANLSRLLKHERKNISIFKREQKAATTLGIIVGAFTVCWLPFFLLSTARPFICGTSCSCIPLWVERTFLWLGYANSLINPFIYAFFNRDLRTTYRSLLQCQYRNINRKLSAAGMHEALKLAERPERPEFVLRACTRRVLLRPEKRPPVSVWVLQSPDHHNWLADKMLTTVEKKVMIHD
# Description: For this purpose sDNA of human 5-HT7 receptor is expressed in CHO cells as it was described in [Shen Y, Monsma F J Jr, Metcalf M A, Jose P A, Hamblin M W, and Sibley DR. […] J. Biol. Chem. 1993, 268, 18200-18204]. […] J. Pharmacol. Exp. Ther. 1994, 268:1403-1410]. […] Methiothepin is used as positive control.
# mice = test: Mice Training in Morris Water Maze (Scopolamine); format: in vivo; conditions: unitary introduction of active ingredient
# Protocol: Mice Training in Morris Water Maze. A round pool which was filled with water at 20-22° C. was used. A round ceramic platform of 14 cm height was placed in the pool. Animals's behavior was registered with automated computer videosystem in combination with software package of movement analysis Any-maze (Stoelting Co., US). Before testing mice suitable for training were selected. That was done by placing the platform 1 cm above the water level and putting an animal on the platform for 20 seconds. Then the mouse was sunk into the water on the opposite side of the pool, allowed to find the platform and climbed it within 60 seconds, where it was left for additional 20 seconds. After that the mouse was repeatedly immersed into water on the opposite side of the pool and allowed to look for platform. If it failed in finding the platform within 60 seconds the experimentator helped it to find the platform and climb it. If the mice could not find the platform itself in two consecutive attempts it was excluded from experiment.
# During the next two days the platform was placed 0.5 centimeter lower the water level. Every day the mice were given four attempts for finding the platform within 60 seconds. The time interval between the attempts was 20 seconds, during which the mice stayed on the platform. Every day before the first attempt mouse was placed on the platform for 20 seconds. The time needed for finding and climbing the platform was registered. The animals were sunk in water in 3 different places on the side of the pool opposite to platform. On each day of two-day testing 35-40 minutes before the beginning of training the mice were injected intraintestinally with physiological solution, Scopolamine or Scopolamine in combination with investigated compound. At least 8 animals were used in each group.
# On the third day the platform was removed and each animal was placed one time in the pool for a period of 60 seconds. The time each mouse spent in the area where the platform had been located during the previous days was registered. This time interval was regarded as a measure of effectiveness of training fulfilled during the previous two days. The testing was carried out during the day time in isolated laboratory using “white noise” at level of about 70 decibel above the human hearing threshold.
Compound,"Dopamine receptor D4.2, % inhibition (human D4.2 receptor)",inhibition at 1 µM (human 5-HT7 receptor; ligand concentration 1 μM),memory disorders caused by Scopolamine in Morris water maze (mice),5-HT7 % inhibition (human 5-HT7 receptor; 10 μM ligand)
Cc1ccc2c(c1)[C@H]1CN(C)CCC[C@@H]1N2CCc1cccnc1 [1.6.2(10)•3HCl],5%,–,–,–
Cc1ccc2c(c1)c1c(n2CCc2ccccn2)CCN(C)C1.Cl.Cl [1.1.2(2-3)•2HCl],–,100%,decreasing memory disorders coused by Scopalomine,–
Cc1ccc2c(c1)[C@@H]1CN(C)CCC[C@@H]1N2CCc1ccc(C)nc1.Cl.Cl.Cl (relative stereo) [1.6.1(2)•3HCl],−11%,–,–,8%
